Measurements reported in ChEMBL document CHEMBL2157896, “Engineering pH-gated transitions for selective and efficient double-strand DNA photocleavage in hypoxic tumors” (J Med Chem, 2011).
Activity calls are given as the source filed them. No cut-off for these calls is given here.

Assays:
Nucleic Acid [1] = experiment: Induction of DNA cleavage in Escherichia coli pBR322 at 10 uM in pH 7.0 phosphate buffer measured after of UV irradiation; assay type: nucleic-acid assay
Nucleic Acid [2] = experiment: Induction of DNA cleavage in Escherichia coli pBR322 assessed as form3/form2 ratio at 15 uM at pH 6 to 9 after 10 mins of UV irradiation; assay type: nucleic-acid assay
A-375 [3] = experiment: Drug uptake in human A375 cells at 30 uM incubated for 30 mins by fluorescence microscopy; assay type: ADME, cell-based; details: a-375, 0.5 h
Nucleic Acid [4] = experiment: Induction of photochemical DNA cleavage in Escherichia coli pBR322 assessed as disappearance of supercoiled DNA at 15 uM in pH 8.0 phosphate buffer after 10 mins of UV irradiation; assay type: nucleic-acid assay
Nucleic Acid [5] = experiment: Induction of photochemical DNA cleavage in Escherichia coli pBR322 assessed as disappearance of supercoiled DNA at 15 uM in pH 6.0 phosphate buffer after 10 mins of UV irradiation; assay type: nucleic-acid assay
Nucleic Acid [6] = experiment: Induction of DNA cleavage in Escherichia coli pBR322 at 5 uM in pH 6.0 phosphate buffer measured after of UV irradiation; assay type: nucleic-acid assay
A-375 [7] = experiment: Phototoxicity in human A375 cells incubated for 72 hrs exposed to UV light for 10 mins by MTT assay; assay type: functional
Nucleic Acid [8] = experiment: Induction of photochemical DNA cleavage in Escherichia coli pBR322 assessed as supercoiled DNA level at 15 uM in pH 6.0 phosphate buffer measured after 30 secs of UV irradiation; assay type: nucleic-acid assay
Nucleic Acid [9] = experiment: Induction of DNA cleavage in Escherichia coli pBR322 at 15 uM in pH 6.0 phosphate buffer measured after of UV irradiation; assay type: nucleic-acid assay
Nucleic Acid [10] = experiment: Induction of photochemical DNA cleavage in Escherichia coli pBR322 assessed as disappearance of supercoiled DNA at 15 uM in pH 7.0 phosphate buffer after 10 mins of UV irradiation; assay type: nucleic-acid assay
Nucleic Acid [11] = experiment: Induction of photochemical DNA cleavage in Escherichia coli pBR322 assessed as supercoiled DNA level at 10 uM in pH 6.0 phosphate buffer measured after UV irradiation; assay type: nucleic-acid assay
A-375 [12] = experiment: Drug uptake in human A375 cells at 30 uM incubated for 30 mins by differential interference contrast microscopy; assay type: ADME, cell-based; details: a-375, 0.5 h
Nucleic Acid [13] = experiment: Induction of DNA cleavage in Escherichia coli pBR322 at 10 uM in pH 6.0 phosphate buffer measured after of UV irradiation; assay type: nucleic-acid assay
A-375 [14] = experiment: Toxicity in human A375 cells at <10 uM under dark condition incubated for 72 hrs by MTT assay; assay type: cell-based; details: a-375, 72 h
Nucleic Acid [15] = experiment: Induction of DNA damage in Escherichia coli pBR322 at 5 uM in pH 6.0 phosphate buffer measured after of UV irradiation; assay type: nucleic-acid assay
Nucleic Acid [16] = experiment: Induction of DNA cleavage in Escherichia coli pBR322 at 10 uM in pH 8.0 phosphate buffer measured after of UV irradiation; assay type: nucleic-acid assay
Nucleic Acid [17] = experiment: Induction of DNA cleavage in Escherichia coli pBR322 at 5 uM in pH 7.0 phosphate buffer measured after of UV irradiation; assay type: nucleic-acid assay
Nucleic Acid [18] = experiment: Induction of DNA cleavage in Escherichia coli pBR322 assessed as form3/form2 ratio after UV irradiation; assay type: nucleic-acid assay

Activity (Nucleic Acid [1]) | Ratio (Nucleic Acid [2]) | Drug uptake (A-375 [3]) | Activity (Nucleic Acid [4]) | Activity (Nucleic Acid [5]) | Activity (Nucleic Acid [6]) | Activity (Nucleic Acid [8]) | Activity (Nucleic Acid [9]) | Activity (Nucleic Acid [10]) | Activity (Nucleic Acid [11]) | Drug uptake (A-375 [12]) | Activity (Nucleic Acid [13]) | Activity (Nucleic Acid [16]) | Activity (Nucleic Acid [17]) | Activity (Nucleic Acid [18]) | SMILES | CC50 (A-375 [7]) | Activity (A-375 [14]) | Activity (Nucleic Acid [15])
> 61% | 1 | Active | Active | Active | 32% | Active | 155% | Active | inactive | Active | 136% |  |  |  | NCCCC[C@H](NC(=O)[C@@H](N)CCCCN)C(=O)Nc1ccc(C#Cc2c(F)c(F)nc(F)c2F)cc1.O=C(O)C(F)(F)F | Active | Non-toxic | 
Active |  | Active |  |  | 17% |  |  |  |  | Active |  | Active | inactive |  | NCCCC[C@H](N)C(=O)NCCCC[C@H](N)C(=O)Nc1ccc(C#Cc2c(F)c(F)nc(F)c2F)c(C#Cc2c(F)c(F)nc(F)c2F)c1.O=C(O)C(F)(F)F | Active | Non-toxic | 92%
 |  |  |  |  |  |  |  |  |  |  |  |  |  | Active | CCN[C@H]1CO[C@@H](O[C@H]2[C@H](O[C@H]3C#C/C=C\C#C[C@]4(O)CC(=O)C(NC(=O)OC)=C3/C4=C\CSSSC)O[C@H](C)[C@@H](NO[C@H]3C[C@H](O)[C@H](SC(=O)c4c(C)c(I)c(O[C@@H]5O[C@@H](C)[C@H](O)[C@@H](OC)[C@H]5O)c(OC)c4OC)[C@@H](C)O3)[C@@H]2O)C[C@@H]1OC |  |  | 
Active |  | Active |  |  | 13% |  |  |  |  | Active |  | Active | inactive |  | NCCCC[C@H](NC(=O)[C@@H](N)CCCCN)C(=O)Nc1ccc(C#Cc2c(F)c(F)nc(F)c2F)c(C#Cc2c(F)c(F)nc(F)c2F)c1.O=C(O)C(F)(F)F | Active | Non-toxic | 77%
